{"source": "paper PMC8121435", "about": "“Cork-in-bottle mechanism of inhibitor binding to mammalian complex I” (Science Advances, 2021)", "type_in_all_cases": "biochemical", "key": {"[1]": {"target": "T1, complex I in mitochondrial membranes (Bos taurus, UniProt P03887+P17694+P42026)", "T1 construct": "Complex I from bovine heart were prepared; from tissue; host or cells: bovine heart mitochondria", "assay": "NADH oxidation in bovine mitochondrial membranes", "settings": "B. taurus membranes 20 μg ml−1; ± SE", "procedure": "(§1) All catalytic activity assays were conducted at 32°C in 96-well plates using a Molecular Devices Spectramax 384 plus plate reader. Catalysis was initiated by addition of 200 μM NADH and monitored at 340 and 380 nm (ε340–380 = 4.81 mM^−1 cm^−1). Linear rates were measured for all assays, inhibitors were added from dimethyl sulfoxide stock solutions as required, and inhibitor-insensitive rates (using either 1 μM piericidin A or 1.4 μM IACS-2858) were subtracted from each measured rate. Membrane samples were prepared as described previously ([17], [20], [59], [60]), diluted to 20 μg ml^−1 in 10 mM tris-SO4 (pH 7.5) and 250 mM sucrose, and supplemented with 3 μM horse heart cytochrome c (except for P. denitrificans, for which the activity is unaffected by the addition). Mouse, bovine, and yeast (Y. lipolytica) complex I were purified as described previously ([17], [20], [59]); diluted to 0.5 nM in 20 mM tris-HCl (pH 7.5), 0.15% asolectin, and 0.15% CHAPS; and assayed using either 200 μM dQ or 200 μM ubiquinone-1 (Sigma-Aldrich). Complex I was purified from P. denitrificans strain Pd1222 ([61]) and provided by O. D. Jarman (MRC Mitochondrial Biology Unit, University of Cambridge); it was assayed likewise but in 10 mM MES-HCl (pH 6.5), 25 mM NaCl, and 2 mM CaCl2. […]"}, "[2]": {"target": "T2, yeast (Y. lipolytica) complex I (Yarrowia lipolytica, UniProt Q9B6E8+Q9UUT7+Q9UUU1)", "T2 sequence (Q9B6E8 1-341)": "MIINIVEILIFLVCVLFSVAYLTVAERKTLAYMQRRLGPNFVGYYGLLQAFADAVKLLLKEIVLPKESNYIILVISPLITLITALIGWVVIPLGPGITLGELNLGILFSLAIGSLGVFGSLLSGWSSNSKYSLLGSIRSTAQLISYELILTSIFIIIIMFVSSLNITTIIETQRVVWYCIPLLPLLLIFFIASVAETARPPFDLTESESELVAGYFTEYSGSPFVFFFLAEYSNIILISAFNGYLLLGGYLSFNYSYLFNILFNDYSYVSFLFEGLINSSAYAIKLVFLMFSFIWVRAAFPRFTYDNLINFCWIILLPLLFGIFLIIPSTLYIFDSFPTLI", "T2 sequence (Q9UUU1 22-466)": "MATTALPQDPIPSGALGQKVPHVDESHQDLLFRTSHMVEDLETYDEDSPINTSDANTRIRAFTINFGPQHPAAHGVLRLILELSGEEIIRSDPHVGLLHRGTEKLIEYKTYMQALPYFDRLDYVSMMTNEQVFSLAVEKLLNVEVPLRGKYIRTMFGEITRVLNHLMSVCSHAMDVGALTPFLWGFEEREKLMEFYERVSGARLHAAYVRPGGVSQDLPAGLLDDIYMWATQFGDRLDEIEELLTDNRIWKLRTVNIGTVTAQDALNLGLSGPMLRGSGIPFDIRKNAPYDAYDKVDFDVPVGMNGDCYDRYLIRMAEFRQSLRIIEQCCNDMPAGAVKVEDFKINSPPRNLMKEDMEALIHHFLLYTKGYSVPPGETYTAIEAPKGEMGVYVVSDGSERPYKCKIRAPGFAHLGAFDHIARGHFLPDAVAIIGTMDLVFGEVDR", "T2 sequence (Q9UUT7 28-210)": "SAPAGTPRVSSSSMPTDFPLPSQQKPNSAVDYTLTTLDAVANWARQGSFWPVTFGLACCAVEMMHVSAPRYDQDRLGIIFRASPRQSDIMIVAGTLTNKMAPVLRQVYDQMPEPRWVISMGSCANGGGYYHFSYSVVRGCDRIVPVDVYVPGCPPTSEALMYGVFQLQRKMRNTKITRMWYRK", "assay": "NADH:decylubiquinone oxidoreduction by purified Y. lipolytica complex I", "procedure": "as §1"}, "mouse complex I": {"target": "T3, mouse complex I (Mus musculus, UniProt P03888+Q91WD5+Q9DC70)", "T3 construct": "from tissue; host or cells: mouse (C57BL/6) heart mitochondria", "assay": "NADH:decylubiquinone oxidoreduction by purified mouse complex I", "settings": "purified mouse complex I ~0.5 nM, 200 μM dQ, 200 μM NADH, 32°C; Hill slope constrained to −1; ± SE", "procedure": "(§2) All catalytic activity assays were conducted at 32°C in 96-well plates using a Molecular Devices Spectramax 384 plus plate reader. Catalysis was initiated by addition of 200 μM NADH and monitored at 340 and 380 nm (ε340–380 = 4.81 mM^−1 cm^−1). Linear rates were measured for all assays, inhibitors were added from dimethyl sulfoxide stock solutions as required, and inhibitor-insensitive rates (using either 1 μM piericidin A or 1.4 μM IACS-2858) were subtracted from each measured rate. Membrane samples were prepared as described previously ([17], [20], [59], [60]), diluted to 20 μg ml^−1 in 10 mM tris-SO4 (pH 7.5) and 250 mM sucrose, and supplemented with 3 μM horse heart cytochrome c (except for P. denitrificans, for which the activity is unaffected by the addition). Mouse, bovine, and yeast (Y. lipolytica) complex I were purified as described previously ([17], [20], [59]); diluted to 0.5 nM in 20 mM tris-HCl (pH 7.5), 0.15% asolectin, and 0.15% CHAPS; and assayed using either 200 μM dQ or 200 μM ubiquinone-1 (Sigma-Aldrich). Complex I was purified from P. denitrificans strain Pd1222 ([61]) and provided by O. D. Jarman (MRC Mitochondrial Biology Unit, University of Cambridge); it was assayed likewise but in 10 mM MES-HCl (pH 6.5), 25 mM NaCl, and 2 mM CaCl2. Bovine SMPs were prepared as described previously ([61]) and diluted to 20 μg ml^−1 in 10 mM tris-SO4 (pH 7.5) and 250 mM sucrose for FET and RET assays. The RET assay was initiated using 1 mM NAD^+, 1 mM ATP, 10 mM succinate, 1 mM cyanide, and 2 mM MgSO4, in the absence of NADH. AOX from Trypanosoma brucei brucei was prepared as described previously ([23]). Complex I proteoliposomes were assayed using 10 mM Mops-KOH (pH 7.5), 50 mM KCl, and AOX (10 μg ml^−1)."}, "complex I": {"test_system": "complex I", "assay": "NADH:ubiquinone-1 oxidoreduction in the presence of inhibitor", "settings": "200 μM ubiquinone-1", "procedure": "as §1"}, "bovine complex I": {"target": "T4, bovine complex I (Bos taurus, UniProt P03887+P17694+P42026)", "T4 construct": "Complex I from bovine heart were prepared; from tissue; host or cells: bovine heart mitochondria", "assay": "NADH:decylubiquinone oxidoreduction by purified bovine complex I", "settings": "purified B. taurus complex I, dQ; ± SE", "procedure": "as §1"}, "[3]": {"target": "T5, P. denitrificans complex I (Paracoccus denitrificans, UniProt P29916+P29918+P29920)", "T5 construct": "Complex I was purified from P. denitrificans strain Pd1222; endogenous in cells; host or cells: P. denitrificans strain Pd1222", "assay": "NADH:decylubiquinone oxidoreduction by purified P. denitrificans complex I", "settings": "dQ, pH 6.5", "procedure": "as §1"}, "complex I in bovine SMPs [4]": {"target": "T6, complex I in bovine SMPs (Bos taurus, UniProt P03887+P17694+P42026)", "T6 construct": "Complex I from bovine heart were prepared; from tissue; host or cells: bovine heart mitochondria", "assay": "Forward electron transport (NADH oxidation) in bovine heart submitochondrial particles", "settings": "NADH oxidation rate, ± SE", "procedure": "as §1"}, "complex I in bovine SMPs [5]": {"target": "T6, complex I in bovine SMPs", "assay": "Reverse electron transport (succinate oxidation-driven NAD+ reduction) in bovine heart submitochondrial particles", "procedure": "as §2"}}, "data": [{"compound": "CS(=O)(=O)C1CCN(c2cccc(Cn3cc(-c4nc(-c5ccc(OC(F)(F)F)cc5)no4)ccc3=O)c2)CC1", "note": "[IACS-2858, 1-(3-(4-(Methylsulfonyl)piperidin-1-yl)benzyl)-5-(3-(4-(trifluoromethoxy)phenyl)-1,2,4-oxadiazol-5-yl)pyridin-2(1H)-one]", "values": [{"measurement": "IC50", "setting": "[1]", "value": "3.4 ± 0.3", "unit": "nM"}, {"measurement": "IC50", "setting": "[2]", "value": "358 ± 37", "unit": "nM"}, {"measurement": "IC50", "setting": "mouse complex I", "value": 2.8, "unit": "nM"}, {"measurement": "reduction of ubiquinone-1 in the presence of the inhibitor", "setting": "complex I", "value": "No activity was observed"}, {"measurement": "IC50", "setting": "bovine complex I", "value": "9.3 ± 0.7", "unit": "nM"}, {"measurement": "IC50", "setting": "[3]", "value": "~110000", "unit": "nM"}, {"measurement": "IC50", "setting": "complex I in bovine SMPs [4]", "value": "6.4 ± 0.2", "unit": "nM"}, {"measurement": "IC50", "setting": "complex I in bovine SMPs [5]; bovine SMPs, succinate oxidation-driven NAD+ reduction rate, ± SE", "value": "3.1 ± 0.1", "unit": "nM"}, {"measurement": "inhibition of RET favoured over FET", "setting": "complex I in bovine SMPs [5]; bovine heart SMPs, RET versus FET", "value": "> 2", "unit": "fold"}]}]}
